Reference: patent US20190381086A1, “INHIBITION OF NEDDYLATION USING GLYCYL-tRNA SYNTHETASE INHIBITORS” (The Scripps Research Institute, priority 2015, published 2019)

Tests used:
[1] = tested on: SR; assay: NCI 60 Cell One-Dose Screen; format: cell-based, human; conditions: Leukemia, single dose 10^-5 M
[2] = tested on: T-47D; format: cell-based; conditions: Breast Cancer
[3] = tested on: ACHN; assay: NCI 60 Cell One-Dose Screen; format: cell-based, human; conditions: Renal Cancer, single dose 10^-5 M
[4] = tested on: HT29; assay: NCI 60 Cell One-Dose Screen; format: cell-based, human; conditions: HT29, Colon Cancer; single dose 10^-5 M
[5] = tested on: UACC-62; assay: NCI 60 Cell One-Dose Screen; format: cell-based, human; conditions: UACC-62, Melanoma; single dose 10^-5 M
[6] = tested on: UO-31; assay: NCI 60 Cell One-Dose Screen; format: cell-based, human; conditions: UO-31, Renal Cancer; single dose 10^-5 M
[7] = tested on: EKVX; format: cell-based; conditions: Non-Small Cell Lung Cancer
[8] = tested on: SK-OV-3; format: cell-based; conditions: SK-OV-3, Ovarian Cancer
[9] = tested on: SR; format: cell-based; conditions: Leukemia
[10] = tested on: SF-539; format: cell-based; conditions: SF-539, CNS Cancer
[11] = tested on: LOX IMVI; format: cell-based; conditions: Melanoma
[12] = tested on: HOP-62; format: cell-based; conditions: HOP-62, Non-Small Cell Lung Cancer
[13] = tested on: HOP-92; assay: NCI 60 Cell One-Dose Screen; format: cell-based, human; conditions: HOP-92, Non-Small Cell Lung Cancer; single dose 10^-5 M
[14] = tested on: NCI-H23; format: cell-based; conditions: NCI-H23, Non-Small Cell Lung Cancer
[15] = tested on: HCC-2998; assay: NCI 60 Cell One-Dose Screen; format: cell-based, human; conditions: HCC-2998, Colon Cancer; single dose 10^-5 M
[16] = tested on: CAKI-1; assay: NCI 60 Cell One-Dose Screen; format: cell-based, human; conditions: CAKI-1, Renal Cancer; single dose 10^-5 M
[17] = tested on: ACHN; format: cell-based; conditions: Renal Cancer
[18] = tested on: SW-620; assay: NCI 60 Cell One-Dose Screen; format: cell-based, human; conditions: SW-620, Colon Cancer; single dose 10^-5 M
[19] = tested on: U251; format: cell-based; conditions: U251, CNS Cancer
[20] = tested on: CCRF-CEM; assay: NCI 60 Cell One-Dose Screen; format: cell-based, human; conditions: Leukemia, single dose 10^-5 M
[21] = tested on: RPMI-8226; assay: NCI 60 Cell One-Dose Screen; format: cell-based, human; conditions: RPMI-8226, Leukemia; single dose 10^-5 M
[22] = tested on: OVCAR-4; format: cell-based; conditions: OVCAR-4, Ovarian Cancer
[23] = tested on: HT29; format: cell-based; conditions: HT29, Colon Cancer
[24] = tested on: SNB-75; format: cell-based; conditions: SNB-75, CNS Cancer
[25] = tested on: HS 578T; format: cell-based; conditions: Breast Cancer
[26] = tested on: BT-549; assay: NCI 60 Cell One-Dose Screen; format: cell-based, human; conditions: BT-549, Breast Cancer; single dose 10^-5 M
[27] = tested on: NCI-H460; format: cell-based; conditions: NCI-H460, Non-Small Cell Lung Cancer
[28] = tested on: A498; format: cell-based; conditions: A498, Renal Cancer
[29] = tested on: HCT-116; assay: NCI 60 Cell One-Dose Screen; format: cell-based, human; conditions: HCT-116, Colon Cancer; single dose 10^-5 M
[30] = tested on: NCI/ADR-RES; format: cell-based; conditions: Ovarian Cancer
[31] = tested on: HS 578T; assay: NCI 60 Cell One-Dose Screen; format: cell-based, human; conditions: Breast Cancer, single dose 10^-5 M
[32] = tested on: KM12; assay: NCI 60 Cell One-Dose Screen; format: cell-based, human; conditions: KM12, Colon Cancer; single dose 10^-5 M
[33] = tested on: SK-MEL-2; format: cell-based; conditions: SK-MEL-2, Melanoma
[34] = Homo sapiens, read-out: LC50 (the source's name)

`NCC(=O)NS(=O)(=O)OC[C@H]1O[C@@H](n2cnc3c(N)ncnc32)[C@H](O)[C@@H]1O` [GlySA, glycylsulfamoyladenosine] was tested, and the “Growth inhibition count (%)” value [1] was 9.926%, the LC50/GI50 [2] was >42.7 and the GI50 ([2]; Homo sapiens, T47D) was 2340 nM. The CC50 ([2]; Homo sapiens, T47D, read-out: LC50 (the source's name)) was > 100000 nM, the “Growth inhibition count (%)” value [3] was 11.79% and the “Growth inhibition count (%)” value [4] was 6.002%. For the same molecule, the “Growth inhibition count (%)” value [5] was 30.71%, the “Growth inhibition count (%)” value [6] was 6.084% and the GI50 ([7]; Homo sapiens) was 2570 nM. The LC50/GI50 [7] was >38.9, the GI50 ([8]; Homo sapiens) was 2880 nM and the CC50 [8, 34] was 37200 nM. For the same molecule, the LC50/GI50 [8] was 12.9, the GI50 ([9]; Homo sapiens) was 933 nM and the CC50 [9, 34] was > 100000 nM. The LC50/GI50 [9] was >107.2, the GI50 ([10]; Homo sapiens) was 1440 nM and the CC50 [10, 34] was 8910 nM. The LC50/GI50 [10] was 6.2, the GI50 ([11]; Homo sapiens) was 1700 nM and the CC50 [11, 34] was 7410 nM. The LC50/GI50 [11] was 4.4, the LC50/GI50 [12] was >269.2 and the GI50 ([12]; Homo sapiens) was 372 nM. For the same molecule, the CC50 [12, 34] was > 100000 nM, the “Growth inhibition count (%)” value [13] was 17.26% and the GI50 ([14]; Homo sapiens) was 2570 nM. The CC50 [14, 34] was > 100000 nM, the LC50/GI50 [14] was >38.9 and the “Growth inhibition count (%)” value [15] was 41.35%. The “Growth inhibition count (%)” value [16] was 5.11%, the GI50 ([17]; Homo sapiens) was 2880 nM and the CC50 [17, 34] was 33900 nM. For the same molecule, the LC50/GI50 [17] was 11.7, the “Growth inhibition count (%)” value [18] was 3.712% and the GI50 ([19]; Homo sapiens, U-251) was 550 nM. For the same molecule, the CC50 ([19]; Homo sapiens, U-251, read-out: LC50 (the source's name)) was 5750 nM, the LC50/GI50 [19] was 10.5 and the “Growth inhibition count (%)” value [20] was 21.68%. The “Growth inhibition count (%)” value [21] was 18.04%, the GI50 ([22]; Homo sapiens) was 389 nM and the CC50 [22, 34] was 24000 nM. For the same molecule, the LC50/GI50 [22] was 61.7, the LC50/GI50 [23] was >33.9 and the GI50 ([23]; Homo sapiens, HT-29) was 2950 nM. For the same molecule, the CC50 ([23]; Homo sapiens, HT-29, read-out: LC50 (the source's name)) was > 100000 nM, the GI50 ([24]; Homo sapiens) was 1150 nM and the CC50 [24, 34] was 9550 nM. For the same molecule, the LC50/GI50 [24] was 8.3, the LC50/GI50 [25] was >34.7 and the GI50 ([25]; Homo sapiens) was 2880 nM. The CC50 [25, 34] was > 100000 nM, the “Growth inhibition count (%)” value [26] was 21.06% and the GI50 ([27]; Homo sapiens) was 3240 nM. For the same molecule, the CC50 [27, 34] was > 100000 nM, the LC50/GI50 [27] was >30.9 and the LC50/GI50 [28] was 4.1. For the same molecule, the GI50 ([28]; Homo sapiens) was 1580 nM, the CC50 [28, 34] was 6460 nM and the “Growth inhibition count (%)” value [29] was 6.566%. The GI50 ([30]; Homo sapiens) was 2510 nM, the CC50 [30, 34] was > 100000 nM and the LC50/GI50 [30] was >39.8. The “Growth inhibition count (%)” value [31] was 16.07%, the “Growth inhibition count (%)” value [32] was 0.7347% and the GI50 ([33]; Homo sapiens) was 2240 nM. The CC50 [33, 34] was 10000 nM and the LC50/GI50 [33] was 4.5.
